Measurements from patent US10393744B2, “Peptides for targeting colorectal cancer, and medical use thereof” (UNIVERSITY OF ULSAN FOUNDATION FOR INDUSTRY COOPERATION, priority 2014, dated 2019).
Entries after “also recorded” stand apart in the source; their conditions may differ.

How the values were obtained:
[1] = tested on: colorectal cancer tissue of radio-resistant case (case C65) and radio-sensitive case (case C87); assay: Crossover in vivo imaging of B5 peptide-expressing phage in 4 populations (Example 5); parameters: species or system mouse; conditions: 4 populations (C65 and C87, irradiated and non-irradiated); tail vein injection, images until 7th day; compared with Cy5.5 dye and empty phage
Description: Among the various peptide-expressing phages selected from the above, the in vivo imaging was attempted again for a B5 peptide, which is a peptide sequence screened only from the irradiated population in the radio-resistant case (case C65). At the same time, to confirm the responsiveness in control groups other than the population of interest, a crossover experiment was carried out. In detail, in the presence of differences in irradiation between the radio-sensitive case and the radio-resistant case of Example 1, the in vivo imaging was carried out to determine the targeting of the B5 peptide sequence in 4 populations in total. Here, the irradiated population of case C65 was set as an experimental group while the non-irradiated population of case C65 and all the populations of case C87 were set as control groups. In the same manner as in Example 4, peptide-expressing phages were amplified and a process of linking a Cy5.5 fluorescent probe was carried out. Then, through the tail vein injection in each population, images thereof were observed until the end of the last 7th day. […]

[2] = tested on: radio-sensitive colorectal cancer tissue (radio-sensitive case 1, other patient); assay: In vivo imaging of B5 peptide-expressing phage in other patients' colorectal cancer tissue (Example 7); parameters: species or system mouse; conditions: other patient's radio-sensitive tissue, with and without irradiation
Description: (§1) In detail, by extending the crossover experiment verified in Example 4, radio-sensitive case 1 and radio-resistant case 1 regarding other colorectal cancer tissues of a patient characterized as adenocarcinoma were introduced in addition to the radio-sensitive case and the radio-resistant case of Example 1. In the same manner as in Example 4, the B5 peptide-expressing phages were amplified and a process of linking a Cy5.5 fluorescent probe was carried out. Regarding the confirmation of the targeting ability of the B5 peptide, the in vivo imaging was used for observation in the same manner as in Example 5. […] In detail, the targeting ability of the B5 peptide sequence targeting a factor inducing resistance against radiation during radiation therapy in Example 6 was also verified in other colorectal cancer tissues of a radio-resistant patient, thereby confirming the possibility of the B5 peptide sequence as a sequence that is responsive to cancer microenvironments causing induction of resistivity during radiotherapy on colorectal cancer. However, in the patients having radio-sensitive colorectal cancer, it was clearly confirmed that the B5 peptide sequence, as a peptide sequence showing no targeting ability regardless of irradiation, was a sequence selectively tracing a radio-resistant factor. […]

[3] = tested on: radio-resistant colorectal cancer tissue (radio-resistant case 1, other patient); assay: as above; parameters: species or system mouse; conditions: other patient's radio-resistant tissue, with and without irradiation
Description: as §1

[4] = tested on: Radio-resistant colorectal cancer tissue of patient (case C65); assay: In vivo/ex vivo imaging and phage elution of Cy5.5-labeled peptide-expressing phages in mouse model transplanted with patient's colorectal cancer tissue (Example 4); parameters: species or system nude mouse; conditions: for in vivo ROI: Cy5.5 fluorescence total flux standardized to Cy5.5 dye control; for pfu/mg (concentration of eluted phages relative to weight of cancer tissue) / ex vivo ROI: extracted cancer tissue; for ex vivo ROI: standardized to Cy5.5 dye control
Excerpt: (§2) Then, the distributed cancer tissue was kept in a specific preservative solution and transferred directly to an animal chamber, so as to maintain a state in which the cancer tissue was not separated from a patient yet. After an NOD/SCID mouse was anesthetized via intraperitoneal injection of anesthetics, the cancer tissue was cut into pieces each having a size of 3×3 mm. Next, each of both flanks of the NOD/SCID mouse was transplanted with a piece of the cut cancer tissues, and sutured. The NOD/SCID mouse was then recovered on a heating pad for about 2 hours (conditions of the preservative solution: HBSS containing 100 IU/ml penicillin, 100 μg/ml streptomycin, 100 μg/ml gentamicin, 2.5 μg/ml amphotericin B, and 5% fetal bovine serum). After completion of the transplantation, the NOD/SCID mouse was raised until tumors were formed. Meanwhile, the formation and growth of tumors were checked at least once a week. When the transplanted cancer tissues grew to a size of at least 500 mm^3, an extraction process was performed thereon. Then, the extracted cancer tissues were each cut into pieces each having a size of 3×3 mm for subculturing. A nude mouse was anesthetized via intraperitoneal injection of anesthetics, and a piece of the cut cancer tissues was transplanted subcutaneously on the right thigh of the nude mouse. A transplantation site was changed from the flank to the thigh so that irradiation can be locally done without affecting other organs during irradiation. That is, a finally used mouse model transplanted with a patient's colorectal cancer tissue in the present invention was a mouse model established in a way that a cancer tissue that underwent subculturing four times was re-transplanted to form a cancer tissue. When the size of the cancer tissue was increased to about 250 mm^3, only the cancer tissue was irradiated with 2 grays (Gy) of radiation. After having recovery time for no longer than 24 hours, in vivo peptide screening was performed. Here, a non-irradiated population, which is a control group, was also subjected to screening in a separate manner.
(§3) In detail, regarding in vivo imaging verification, the peptide-expressing phage was amplified, and a process of linking a fluorescent probe (Cy5.5) was performed. In particular, 1 μg/μl of N-hydroxysuccinimide esters of Cy5.5 (Amersham) was added to 1 mL of bicarbonate buffer (pH 8.3) having the phage concentration of 10^12 plaque forming units (pfu), and then, in a condition where a dark environment was maintained, a phage-surface protein was linked to the Cy5.5 fluorescent probe at room temperature for 3 hours. That is, amine groups of the phage-surface protein were chemically linked to N-hydroxysuccinimide esters of the Cy5.5 fluorescent probe via a covalent bond. The peptide-expressing phages to which the Cy5.5 fluorescent probe was linked were each obtained by precipitation with 170 μl of 20% (w/v) PEG 8000/2.5 M NaCl solution and purification. To determine a proportion of the Cy5.5 fluorescent probe linked to each of the finally obtained phage samples, an IVIS spectrum imaging system (Xenogen) was used for measurement, and region of interest (ROI) values were determined using the software program of a corresponding device.
(§4) In addition, on the last day of the in vivo imaging, the cancer tissues were each extracted, to thereby obtain ex vivo images thereof.

[5] = tested on: radio-resistant colorectal cancer patient case (C65) cancer tissue; assay: Immunohistochemical staining of extracted cancer tissues with anti-M13 antibody (Example 6); type: in vivo, mouse; conditions: cancer tissues of each population extracted after imaging
Description: To verify histological targeting ability of the B5 peptide sequence verified in Example 5, the imaging of the B5 peptide sequence was obtained. Then, cancer tissues of each population were extracted to prepare paraffin blocks and slices. In detail, (1) the extracted cancer tissues were immersed in a formaldehyde solution at room temperature for 24 hours in terms of for immobilization. Then, following a dehydration process, paraffin was added to the solution through penetration to form paraffin blocks. Afterwards, a microtome was used to manufacture slices having a thickness of 3 μm. To perform real immunohistological staining, (2) following a deparaffinization process performed on the slices, (3) an unmasking process was performed so that structures of various proteins immobilized to the tissue slices were recovered to restore sites where antibodies normally bind. Sequentially, (4) a blocking process was performed using a 5% BSA solution, (5) primary antibodies were bound (wherein the antibodies used herein were anti-mouse M13 IgG recognizing M13 phage capsid proteins), (6) and secondary antibodies were bound while HRP was bound. Afterwards, (7) sites where phages were present were stained using DAB development, (7) the nuclei […] were stained with hematoxylin, and (8) a dehydration process was performed thereon. […]

[6] = tested on: Radio-sensitive colorectal cancer tissue of patient (case C87); assay: In vivo/ex vivo imaging and phage elution of Cy5.5-labeled peptide-expressing phages in mouse model transplanted with patient's colorectal cancer tissue (Example 4); parameters: species or system nude mouse; conditions: for in vivo ROI: Cy5.5 fluorescence total flux standardized to Cy5.5 dye control; for pfu/mg (concentration of eluted phages relative to weight of cancer tissue) / ex vivo ROI: extracted cancer tissue; for ex vivo ROI: standardized to Cy5.5 dye control
Excerpt: as §2, §3, §4

[7] = case C65, irradiated population (2 Gy)
[8] = case C87, irradiated population (2 Gy)
[9] = case C87, non-irradiated population
[10] = case C65, non-irradiated population

Row | Substance | targeting ability by in vivo imaging (crossover experiment) [1] | targeting ability by in vivo imaging [2] | targeting ability by in vivo imaging [3] | in vivo ROI [4, 7] | pfu/mg (concentration of eluted phages relative to weight of cancer tissue) [4, 7] [pfu/mg] | ex vivo ROI [4, 7] | histological targeting ability (immunohistochemical staining of phage) [5] | in vivo ROI [6, 8] | pfu/mg (concentration of eluted phages relative to weight of cancer tissue) [6, 8] [pfu/mg] | ex vivo ROI [6, 8] | in vivo ROI [6, 9] | pfu/mg (concentration of eluted phages relative to weight of cancer tissue) [6, 9] [pfu/mg] | ex vivo ROI [6, 9] | in vivo ROI [4, 10] | pfu/mg (concentration of eluted phages relative to weight of cancer tissue) [4, 10] [pfu/mg] | ex vivo ROI [4, 10]
1 | TPSFSKI [B5] | specific binding of a B5 peptide sequence only to an irradiated population in radio-resistant case; also recorded: only the irradiated population of the radio-resistant case (case C65) has exhibited excellent targeting ability | did not show any targeting ability regardless of irradiation | exhibited targeting ability only in the case of irradiation | 4.07 | 209.47 | 2.43 | excellent targeting ability; also recorded: specifically bound only to the irradiated population in the radio-resistant colorectal cancer patient case (C65) | – | – | – | – | – | – | – | – | –
2 | NTGSPYE [A2, 7-amino-acid loop peptide expressed on M13 phage, tested as Cy5.5-labeled phage] | – | – | – | – | – | – | – | 1.15 | 4.75 | 2.64 | 1.13 | 1.55 | 0.77 | 2.04 | 181.48 | 1.61
3 | GYSSFNR [B6] | – | – | – | 3.03 | 211.76 | 2.06 | – | – | – | – | 1.12 | 3.96 | 0.62 | – | – | –
4 | Cy5.5 [reference compound] | – | – | – | 1.00 | – | 1.00 | – | 1.00 | – | 1.00 | 1.00 | – | 1.00 | 1.00 | – | 1.00
